Assay results reported in the supplement of paper PMC8671470.

tested on: THP-1; assay: cell viability (% survival relative to DMSO control, bortezomib = 0%); higher = less cytotoxic; details: 10 nM; 72 h
In short: (§1)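 Fifteen myeloid leukaemia cell lines were exposed to compounds at 1, 10, 100, 1000 or 10000 nM in 384-well plates for 72 h at 37 °C and 5% CO2. Viability was read by CellTiter-Glo luminescence and normalised, with vehicle as 100% and a 10 µM positive control as 0%. Values are percent survival averaged over duplicates.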

Going from CCOC(=O)c1sc(NC(=O)c2ccco2)c(SC#N)c1C [CBR-5884] to O=C(/C=C/c1ccc(O)c(O)c1)OCCc1ccccc1 [Caffeic acid phenethyl ester], the cell viability rises from 97.1% to 100%.

First: CCCCCOC(=O)Nc1nc(=O)n([C@@H]2O[C@H](C)[C@@H](O)[C@H]2O)cc1F [Capecitabine]
Second: O=c1c(-c2ccc(O)cc2)coc2cc(O[C@@H]3O[C@H](CO)[C@@H](O)[C@H](O)[C@H]3O)ccc12 [Daidzin]
The cell viability of the first is higher: 100% for the first, 98.5% for the second.

First: Cc1ccc(-c2cc(C(F)(F)F)nn2-c2ccc(S(N)(=O)=O)cc2)cc1 [Celecoxib]
Second: c1cc(-c2cnn3cc(-c4ccc(OCCN5CCCCC5)cc4)cnc23)ccn1 [Dorsomorphin]
The cell viability of the first is higher: 102% for the first, 101% for the second.

Going from CCN(CC)C(=S)SSC(=S)N(CC)CC [Disulfiram] to C[C@H]1c2cccc(O)c2C(=O)C2C(=O)[C@]3(O)C(=O)C(C(N)=O)C(=O)[C@@H](N(C)C)[C@@H]3[C@@H](O)[C@@H]21 (some centres undefined) [Doxycycline], the cell viability rises from 95.6% to 95.9%.

same assay, conditions: 100 nM; 72 h

First: Cc1c(Cl)cccc1S(=O)(=O)Nc1nc(CC(=O)N2CCN(C)CC2)cs1 [BVT-2733]
Second: CCOC(=O)c1sc(NC(=O)c2ccco2)c(SC#N)c1C [CBR-5884]
The cell viability of the first is higher: 100% for the first, 98.1% for the second.

Going from CCc1oc2ccccc2c1C(=O)c1cc(Br)c(O)c(Br)c1 [Benzbromarone] to O=C(/C=C/c1ccc(O)c(O)c1)OCCc1ccccc1 [Caffeic acid phenethyl ester], the cell viability falls from 112% to 91.9%.

First: CCCCCOC(=O)Nc1nc(=O)n([C@@H]2O[C@H](C)[C@@H](O)[C@H]2O)cc1F [Capecitabine]
Second: O=c1c(-c2ccc(O)cc2)coc2cc(O[C@@H]3O[C@H](CO)[C@@H](O)[C@H](O)[C@H]3O)ccc12 [Daidzin]
The cell viability of the first is lower: 94.1% for the first, 97.5% for the second.

Going from Cc1ccc(-c2cc(C(F)(F)F)nn2-c2ccc(S(N)(=O)=O)cc2)cc1 [Celecoxib] to c1cc(-c2cnn3cc(-c4ccc(OCCN5CCCCC5)cc4)cnc23)ccn1 [Dorsomorphin], the cell viability falls from 105% to 101%.

Going from CCN(CC)C(=S)SSC(=S)N(CC)CC [Disulfiram] to C[C@H]1c2cccc(O)c2C(=O)C2C(=O)[C@]3(O)C(=O)C(C(N)=O)C(=O)[C@@H](N(C)C)[C@@H]3[C@@H](O)[C@@H]21 (some centres undefined) [Doxycycline], the cell viability rises from 48.1% to 100%.

same assay, conditions: 1000 nM; 72 h

Going from Cc1c(Cl)cccc1S(=O)(=O)Nc1nc(CC(=O)N2CCN(C)CC2)cs1 [BVT-2733] to CCOC(=O)c1sc(NC(=O)c2ccco2)c(SC#N)c1C [CBR-5884], the cell viability falls from 97% to 94.4%.

Going from CCc1oc2ccccc2c1C(=O)c1cc(Br)c(O)c(Br)c1 [Benzbromarone] to O=C(/C=C/c1ccc(O)c(O)c1)OCCc1ccccc1 [Caffeic acid phenethyl ester], the cell viability falls from 101% to 86.3%.

First: CCCCCOC(=O)Nc1nc(=O)n([C@@H]2O[C@H](C)[C@@H](O)[C@H]2O)cc1F [Capecitabine]
Second: O=c1c(-c2ccc(O)cc2)coc2cc(O[C@@H]3O[C@H](CO)[C@@H](O)[C@H](O)[C@H]3O)ccc12 [Daidzin]
The cell viability of the first is lower: 105% for the first, 106% for the second.

Compared with Cc1ccc(-c2cc(C(F)(F)F)nn2-c2ccc(S(N)(=O)=O)cc2)cc1 [Celecoxib], c1cc(-c2cnn3cc(-c4ccc(OCCN5CCCCC5)cc4)cnc23)ccn1 [Dorsomorphin] is higher in cell viability: 95.5% for the first, 96.2% for the second.

Compared with CCN(CC)C(=S)SSC(=S)N(CC)CC [Disulfiram], C[C@H]1c2cccc(O)c2C(=O)C2C(=O)[C@]3(O)C(=O)C(C(N)=O)C(=O)[C@@H](N(C)C)[C@@H]3[C@@H](O)[C@@H]21 (some centres undefined) [Doxycycline] is higher in cell viability: 30.5% for the first, 105% for the second.

same assay, conditions: 10000 nM; 72 h

Compared with Cc1c(Cl)cccc1S(=O)(=O)Nc1nc(CC(=O)N2CCN(C)CC2)cs1 [BVT-2733], CCOC(=O)c1sc(NC(=O)c2ccco2)c(SC#N)c1C [CBR-5884] is higher in cell viability: 92.9% for the first, 100% for the second.

Compared with CCc1oc2ccccc2c1C(=O)c1cc(Br)c(O)c(Br)c1 [Benzbromarone], O=C(/C=C/c1ccc(O)c(O)c1)OCCc1ccccc1 [Caffeic acid phenethyl ester] is lower in cell viability: 86.3% for the first, 51% for the second.

First: CCCCCOC(=O)Nc1nc(=O)n([C@@H]2O[C@H](C)[C@@H](O)[C@H]2O)cc1F [Capecitabine]
Second: O=c1c(-c2ccc(O)cc2)coc2cc(O[C@@H]3O[C@H](CO)[C@@H](O)[C@H](O)[C@H]3O)ccc12 [Daidzin]
The cell viability of the first is lower: 94.6% for the first, 95.4% for the second.

Going from Cc1ccc(-c2cc(C(F)(F)F)nn2-c2ccc(S(N)(=O)=O)cc2)cc1 [Celecoxib] to c1cc(-c2cnn3cc(-c4ccc(OCCN5CCCCC5)cc4)cnc23)ccn1 [Dorsomorphin], the cell viability falls from 84.7% to 55.6%.

First: CCN(CC)C(=S)SSC(=S)N(CC)CC [Disulfiram]
Second: C[C@H]1c2cccc(O)c2C(=O)C2C(=O)[C@]3(O)C(=O)C(C(N)=O)C(=O)[C@@H](N(C)C)[C@@H]3[C@@H](O)[C@@H]21 (some centres undefined) [Doxycycline]
The cell viability of the first is lower: 57.4% for the first, 106% for the second.

tested on: KCL-22; assay: as above; details: 1 nM; 72 h
In short: as §1

First: Cc1c(Cl)cccc1S(=O)(=O)Nc1nc(CC(=O)N2CCN(C)CC2)cs1 [BVT-2733]
Second: CCOC(=O)c1sc(NC(=O)c2ccco2)c(SC#N)c1C [CBR-5884]
The cell viability of the first is higher: 114% for the first, 110% for the second.

First: CCc1oc2ccccc2c1C(=O)c1cc(Br)c(O)c(Br)c1 [Benzbromarone]
Second: O=C(/C=C/c1ccc(O)c(O)c1)OCCc1ccccc1 [Caffeic acid phenethyl ester]
The cell viability of the first is higher: 108% for the first, 87.2% for the second.

Compared with CCCCCOC(=O)Nc1nc(=O)n([C@@H]2O[C@H](C)[C@@H](O)[C@H]2O)cc1F [Capecitabine], O=c1c(-c2ccc(O)cc2)coc2cc(O[C@@H]3O[C@H](CO)[C@@H](O)[C@H](O)[C@H]3O)ccc12 [Daidzin] is lower in cell viability: 118% for the first, 88.6% for the second.

Going from Cc1ccc(-c2cc(C(F)(F)F)nn2-c2ccc(S(N)(=O)=O)cc2)cc1 [Celecoxib] to c1cc(-c2cnn3cc(-c4ccc(OCCN5CCCCC5)cc4)cnc23)ccn1 [Dorsomorphin], the cell viability rises from 101% to 108%.

First: CCN(CC)C(=S)SSC(=S)N(CC)CC [Disulfiram]
Second: C[C@H]1c2cccc(O)c2C(=O)C2C(=O)[C@]3(O)C(=O)C(C(N)=O)C(=O)[C@@H](N(C)C)[C@@H]3[C@@H](O)[C@@H]21 (some centres undefined) [Doxycycline]
The cell viability of the first is lower: 72.4% for the first, 130% for the second.

same assay, conditions: 10 nM; 72 h

Compared with Cc1c(Cl)cccc1S(=O)(=O)Nc1nc(CC(=O)N2CCN(C)CC2)cs1 [BVT-2733], CCOC(=O)c1sc(NC(=O)c2ccco2)c(SC#N)c1C [CBR-5884] is higher in cell viability: 83.6% for the first, 85.5% for the second.

First: CCc1oc2ccccc2c1C(=O)c1cc(Br)c(O)c(Br)c1 [Benzbromarone]
Second: O=C(/C=C/c1ccc(O)c(O)c1)OCCc1ccccc1 [Caffeic acid phenethyl ester]
The cell viability of the first is lower: 90.7% for the first, 108% for the second.

Compared with CCCCCOC(=O)Nc1nc(=O)n([C@@H]2O[C@H](C)[C@@H](O)[C@H]2O)cc1F [Capecitabine], O=c1c(-c2ccc(O)cc2)coc2cc(O[C@@H]3O[C@H](CO)[C@@H](O)[C@H](O)[C@H]3O)ccc12 [Daidzin] is higher in cell viability: 85.4% for the first, 98.9% for the second.

Going from Cc1ccc(-c2cc(C(F)(F)F)nn2-c2ccc(S(N)(=O)=O)cc2)cc1 [Celecoxib] to c1cc(-c2cnn3cc(-c4ccc(OCCN5CCCCC5)cc4)cnc23)ccn1 [Dorsomorphin], the cell viability rises from 76.4% to 106%.

Going from CCN(CC)C(=S)SSC(=S)N(CC)CC [Disulfiram] to C[C@H]1c2cccc(O)c2C(=O)C2C(=O)[C@]3(O)C(=O)C(C(N)=O)C(=O)[C@@H](N(C)C)[C@@H]3[C@@H](O)[C@@H]21 (some centres undefined) [Doxycycline], the cell viability falls from 92.3% to 69.3%.

same assay, conditions: 100 nM; 72 h

Cc1c(Cl)cccc1S(=O)(=O)Nc1nc(CC(=O)N2CCN(C)CC2)cs1 [BVT-2733] gave a cell viability of 97.9%.
